For test [1], the target named is FGFR4 kinase (Homo sapiens (Human), UniProt P22455). The test is described as follows: Enzymologic experiment of FGFR4 (TR-FRET). In kind it is biochemical. To be noted: FGFR4 kinase activity. The protocol: In this experiment, the inhibitory effect of the compounds on FGFR4 kinase activity was tested by a fluorescence resonance energy transfer (TR-FRET) method, and the half maximal inhibitory concentration (IC50) of the compounds on the FGFR4 kinase activity was determined.
2) 1˜5 μL of diluted solution in gradient of the compound was added.
3) 1˜5 μL of a substrate mixture containing substrate polypeptide with a final concentration of 5˜50 nM and ATP with a final concentration of 10˜200 μM was added.
4) The mixture was incubated for 0.5˜3 hours at room temperature.
5) 10 μL of EDTA and a test solution comprising labeled antibody were added, and the plate was incubated for 1 hour at room temperature.
7) The inhibition rates were calculated according to the fluorescence signal values.
(In general: Time-resolved FRET reads energy transfer from a long-lived donor to a nearby acceptor.)

In test [2] the target is FGFR1 kinase (Homo sapiens (Human), UniProt P11362). The test is described as follows: Enzymologic experiment of FGFR1 (TR-FRET). In kind it is biochemical. To be noted: FGFR1 kinase activity. An outline of the steps:
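FGFR1 at 0.1˜5 nM final with substrate peptide 5˜50 nM and ATP 10˜200 μM final, 0.5˜3 h at room temperature. Stopped with EDTA plus labeled antibody for 1 h; TR-FRET signal read at 665 nm, IC50 fitted from inhibition rates.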

The test system of test [3] is SK-HEP-1 cells. The test is described as follows: Inhibition of SK-HEP-1 cell proliferation (CellTiter-Glo). The conditions noted are these: Homo sapiens, SK-HEP1; SK-HEP-1 cell proliferation, 72 hours, CellTiter-Glo; read-out: SK-HEP-1 IC50. It is filed as cell-based. The gist of the method: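 Cells seeded and allowed to attach 16–24 h, then exposed to serially diluted compound for 72 h at 37 °C, 5% CO2. Viability read by CellTiter-Glo luminescence; IC50 fitted from inhibition rates across concentrations.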
In general terms: In ATP-based viability assays light output follows the ATP content of the culture.

In test [4] the test system is Hep 3B cells. The test is described as follows: Inhibition of Hep 3B cell proliferation (CellTiter-Glo). In kind it is cell-based. To be noted: Homo sapiens, Hep3B; Hep 3B cell proliferation, 72 hours, CellTiter-Glo; read-out: Hep 3B IC50.
Test [5] has as its system HuH-7 cells. As to the kind of experiment: Inhibition of HuH-7 cell proliferation (CellTiter-Glo). In kind it is cell-based. The conditions noted are these: Homo sapiens; HuH-7 cell proliferation, 72 hours, CellTiter-Glo; read-out: HuH-7 IC50. The gist of the method:
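HuH-7 cells plated and left 16–24 h, then exposed to serially diluted compound for 72 h at 37 °C, 5% CO2. Viability read by CellTiter-Glo luminescence. IC50 obtained by curve fitting of inhibition rates.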

Each structure is given as a SMILES string. Bounds are passed on as bounds.

Sequence of FGFR4 kinase (P22455 22-802): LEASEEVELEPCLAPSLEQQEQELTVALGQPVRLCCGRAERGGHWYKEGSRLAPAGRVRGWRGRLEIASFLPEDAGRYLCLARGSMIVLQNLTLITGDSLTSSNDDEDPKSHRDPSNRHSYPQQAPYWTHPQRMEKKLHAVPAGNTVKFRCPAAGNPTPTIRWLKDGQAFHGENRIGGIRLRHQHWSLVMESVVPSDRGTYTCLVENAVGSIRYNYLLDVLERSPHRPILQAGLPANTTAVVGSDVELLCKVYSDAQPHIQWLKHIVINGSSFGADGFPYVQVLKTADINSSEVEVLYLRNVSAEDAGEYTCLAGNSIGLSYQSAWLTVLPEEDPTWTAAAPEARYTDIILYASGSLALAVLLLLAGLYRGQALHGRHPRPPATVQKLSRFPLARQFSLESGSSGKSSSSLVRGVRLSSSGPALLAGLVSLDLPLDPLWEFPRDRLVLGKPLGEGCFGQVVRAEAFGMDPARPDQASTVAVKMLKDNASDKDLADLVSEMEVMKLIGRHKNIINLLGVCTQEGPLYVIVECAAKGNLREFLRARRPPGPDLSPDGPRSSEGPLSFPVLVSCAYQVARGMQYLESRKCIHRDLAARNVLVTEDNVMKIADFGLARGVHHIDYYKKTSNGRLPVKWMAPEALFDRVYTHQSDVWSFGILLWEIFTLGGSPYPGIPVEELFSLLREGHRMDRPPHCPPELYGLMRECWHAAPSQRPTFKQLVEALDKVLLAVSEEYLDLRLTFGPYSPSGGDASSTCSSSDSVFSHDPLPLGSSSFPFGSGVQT
Sequence of FGFR1 kinase (P11362 22-822): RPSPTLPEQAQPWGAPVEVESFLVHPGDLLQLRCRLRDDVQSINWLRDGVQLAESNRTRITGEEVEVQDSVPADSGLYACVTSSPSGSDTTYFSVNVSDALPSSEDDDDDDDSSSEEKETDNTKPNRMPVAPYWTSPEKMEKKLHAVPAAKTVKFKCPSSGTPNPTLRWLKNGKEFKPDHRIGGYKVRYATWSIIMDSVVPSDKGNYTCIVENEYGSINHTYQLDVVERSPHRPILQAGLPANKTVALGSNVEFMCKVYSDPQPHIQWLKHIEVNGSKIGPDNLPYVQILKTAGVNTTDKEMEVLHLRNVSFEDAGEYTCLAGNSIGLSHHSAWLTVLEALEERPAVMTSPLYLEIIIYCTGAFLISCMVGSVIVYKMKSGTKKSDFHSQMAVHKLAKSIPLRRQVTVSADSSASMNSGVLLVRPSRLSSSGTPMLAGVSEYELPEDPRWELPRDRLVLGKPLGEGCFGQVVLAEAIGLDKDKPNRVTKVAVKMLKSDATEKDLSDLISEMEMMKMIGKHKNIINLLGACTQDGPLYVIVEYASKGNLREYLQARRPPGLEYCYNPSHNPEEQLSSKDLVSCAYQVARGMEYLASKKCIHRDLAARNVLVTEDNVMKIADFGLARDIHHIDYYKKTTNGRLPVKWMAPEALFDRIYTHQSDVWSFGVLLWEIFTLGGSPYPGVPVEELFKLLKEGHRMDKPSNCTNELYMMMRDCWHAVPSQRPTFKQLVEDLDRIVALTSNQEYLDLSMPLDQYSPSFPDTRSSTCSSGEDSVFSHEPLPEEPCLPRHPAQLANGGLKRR

`N#Cc1cnc(NC(=O)N2CCCc3cc(CN4CCOCC4=O)c(C=O)nc32)cc1NCCN1CCCC1` [Example 2, N-(5-Cyano-4-((2-(pyrrolidin-1-yl)ethyl)amino)pyridin-2-yl)-7-formyl-6-((3-carbonylmorpholino)methyl)-3,4-dihydro-1,8-naphthyridin-1(2H)-carboxamide]: the IC50 was 2.9 nM in test [1] and greater than 10000 nM in test [2].
`CC1OCCC1Sc1cc(NC(=O)N2CCCc3cc(CN4CCOCC4=O)c(C=O)nc32)ncc1C#N` (stereo not drawn) [Example 3, N-(5-Cyano-4-((2-methyltetrahydrofuran-3-yl)thio)pyridin-2-yl)-7-formyl-6-((3-carbonylmorpholino)methyl)-3,4-dihydro-1,8-naphthyridin-1(2H)-carboxamide]: the IC50 in test [1] is 5.4 nM; in test [3], greater than 10000 nM; in test [4], 13.1 nM; in test [2], greater than 10000 nM; in test [5], 40.9 nM.
On to `COCCNc1cc(NC(=O)N2CCCc3cc(CN4CCCN(C)CC4=O)c(C=O)nc32)ncc1C#N` [Example 7, N-(5-Cyano-4-((2-methoxyethyl)amino)pyridin-2-yl)-7-formyl-6-((4-methyl-2-carbonyl-1,4-diazoheptyl-1-yl)methyl)-3,4-dihydro-1,8-naphthyridin-1(2H)-carboxamide], for which the IC50 in test [1] was 0.6 nM; in test [3], greater than 10000 nM; in test [4], 1.4 nM; in test [2], greater than 10000 nM; in test [5], 10.2 nM.
As for `COCCNc1cc(NC(=O)N2CCCc3cc(CN4C(=O)COCC45CC5)c(C=O)nc32)ncc1C#N` [Example 21, N-(5-Cyano-4-((2-methoxyethyl)amino)pyridin-2-yl)-7-formyl-6-((5-carbonyl-7-oxa-4-azaspiro[2.5]octane-4-yl)methyl)-3,4-dihydro-1,8-naphthyridin-1(2H)-carboxamide], the IC50 in test [1] is 1.71 nM; in test [3] it was greater than 10000 nM; in test [4] it was 8.6 nM; in test [2] it was greater than 10000 nM; in test [5], 13.4 nM.
With `COC[C@H](C)Nc1cc(NC(=O)N2CCCc3cc(CN4CCCCOC4=O)c(C=O)nc32)ncc1C#N` [Example 30], the IC50 is 2.5 nM in test [1]; greater than 10000 nM in test [3]; 4.6 nM in test [4]; greater than 10000 nM in test [2]; 13.4 nM in test [5].
With `N#Cc1cnc(NC(=O)N2CCCc3cc(CN4CCCCOC4=O)c(C=O)nc32)cc1S[C@H]1CCOC1` [Example 36], the IC50 in test [1] is 4.25 nM; in test [3], greater than 10000 nM; in test [4], 8 nM; in test [2], greater than 10000 nM; in test [5], 20.4 nM.
For the molecule `CO[C@@H]1COCC1Nc1cc(NC(=O)N2CCCc3cc(CN4CCCCOC4=O)c(C=O)nc32)ncc1C#N` (stereo partly drawn) [Example 37, N-(5-Cyano-4-(((trans)-4-methoxytetrahydrofuran-3-yl)amino)pyridin-2-yl)-7-formyl-6-((2-carbonyl-1,3-oxazepin-3-yl)methyl)-3,4-dihydro-1,8-naphthyridin-1(2H) -carboxamide], the IC50 in test [1] is 1.12 nM; in test [3] it was greater than 10000 nM; in test [4], 2.8 nM; in test [2], greater than 10000 nM; in test [5] it was 4.1 nM.
For the molecule `COCCNc1cc(NC(=O)N2CCCc3cc(CN4C(=O)OCC45CC5)c(C=O)nc32)ncc1C#N` [Example 43, N-(5-Cyano-4-((2-methoxyethyl)amino)pyridin-2-yl)-7-formyl-6-((5-carbonyl-6-oxa-4-azaspiro[2.4]heptan-4-yl)methyl)-3,4-dihydro-1,8-naphthyridin-1(2H)-carboxamide], the IC50 in test [1] was 4.41 nM; in test [3], greater than 10000 nM; in test [4], 8.1 nM; in test [2], greater than 10000 nM; in test [5], 8.1 nM.
Consider `CC1COC(=O)N1Cc1cc2c(nc1C=O)N(C(=O)Nc1cc(S[C@@H]3CCOC3)c(C#N)cn1)CCC2` (stereo partly drawn) [Example 44, N-(5-Cyano-4-(((R)-tetrahydrofuran-3-yl)thio)pyridin-2-yl)-7-formyl-6-(((S)-4-methyl-2-carbonyloxazolidin-3-yl)methyl)-3,4-dihydro-1,8-naphthyridin-1(2H)-carboxamide], for which the IC50 was 6.5 nM in test [1]; greater than 10000 nM in test [3]; 11.5 nM in test [4]; greater than 10000 nM in test [2]; 35.4 nM in test [5].
Consider `C[C@H]1COC(=O)N1Cc1cc2c(nc1C=O)N(C(=O)Nc1cc(S[C@H]3CCOC3)c(C#N)cn1)CCC2` [Example 45, N-(5-Cyano-4-(((S)-tetrahydrofuran-3-yl)thio)pyridin-2-yl)-7-formyl-6-(((S)-4-methyl-2-carbonyloxazolidin-3-yl)methyl)-3,4-dihydro-1,8-naphthyridin-1(2H)-carboxamide], for which the IC50 in test [1] was 4.66 nM; in test [3], greater than 10000 nM; in test [4], 14.2 nM; in test [2], greater than 10000 nM; in test [5], 32.2 nM.
`CO[C@H]1COCC1Oc1cc(NC(=O)N2CCCc3cc(CN4C(=O)OC[C@@H]4C)c(C=O)nc32)ncc1C#N` (stereo partly drawn) [Example 47, N-(5-Cyano-4-(((3,4)-trans-4-methoxytetrahydrofuran-3-yl)oxy)pyridin-2-yl)-7-formyl-6-(((S)-4-methyl-2-carbonyloxazolidin-3-yl)methyl)-3,4-dihydro-1,8-naphthyridin-1(2H)-carboxamide]: the IC50 in test [1] is 4.95 nM; in test [3] it was greater than 10000 nM; in test [4] it was 9.9 nM; in test [2], greater than 10000 nM; in test [5], 24.4 nM.
For `COC[C@@H](C)Oc1cc(NC(=O)N2CCCc3cc(CN4CCOC4=S)c(C=O)nc32)ncc1C#N` [Example 48, (R)-N-(5-Cyano-4-((1-methoxypropan-2-yl)oxy)pyridin-2-yl)-7-formyl-6-((2-thiooxazolidin-3-yl)methyl)-3,4-dihydro-1,8-naphthyridin-1(2H)-carboxamide], the IC50 in test [1] was 8.48 nM; in test [3] it was greater than 10000 nM; in test [4], 13.1 nM; in test [2], greater than 10000 nM; in test [5], 15.6 nM.
For the molecule `COc1ncccc1CNc1cc(NC(=O)N2CCCc3cc(CN4CCOCC4=O)c(C=O)nc32)ncc1C#N` [Example 57, N-(5-Cyano-4-(((2-methoxypyridin-3-yl)methyl)amino)pyridin-2-yl)-7-formyl-6-((3-carbonylmorpholino)methyl)-3,4-dihydro-1,8-naphthyridin-1(2H)-carboxamide], the IC50 was 7.63 nM in test [1]; greater than 10000 nM in test [3]; 10.2 nM in test [4]; greater than 10000 nM in test [2]; 24.3 nM in test [5].
Consider `CO[C@@H]1CCN(c2cc(NC(=O)N3CCCc4cc(CN5CCN(C)CC5=O)c(C=O)nc43)ncc2C#N)C1` [Example 64, (R)-N-(5-Cyano-4-(3-methoxypyrrolidin-1-yl)pyridin-2-yl)-7-formyl-6-((4-methyl-2-carbonylpiperazin-1-yl)methyl)-3,4-dihydro-1,8-naphthyridin-1(2H)-carboxamide], for which the IC50 is 1.62 nM in test [1]; greater than 10000 nM in test [3]; 5.3 nM in test [4]; greater than 10000 nM in test [2]; 14.6 nM in test [5].
Consider `CO[C@H]1CCOCC1Nc1cc(NC(=O)N2CCCc3cc(CN4CCOCC4=O)c(C=O)nc32)ncc1C#N` (stereo partly drawn) [Example 70, N-(5-Cyano-4-(((3,4)-trans-4-methoxytetrahydro-2H-pyran-3-yl)amino)pyridin-2-yl)-7-formyl-6-((3-carbonylmorpholino)methyl)-3,4-dihydro-1,8-naphthyridin-1(2H) -carboxamide], for which the IC50 is 1.34 nM in test [1]; greater than 10000 nM in test [3]; 6.2 nM in test [4]; greater than 10000 nM in test [2]; 19.4 nM in test [5].

The term IC50 denotes the concentration that gives 50% inhibition.

Values taken from US11667631B2, “FGFR4 inhibitor, preparation method therefor, and applications thereof” (Jiangsu Hansoh Pharmaceutical Group Co., Ltd., priority 2016, dated 2023).
